From US5075318A, “8α-acylaminoergoline, its preparation and pharmaceutical compositions containing it” (Sandoz Ltd., priority 1987, dated 1991)
Read-outs that look alike come from different tables or passages of the source.

Columns and labels:
D-1 receptor sites = target: T1, D-1 receptor sites (Bos taurus, UniProt Q95136); test: D-1 receptor binding, displacement of 3H-SCH 23390 in calf striatal membranes
T1 construct: Fresh calf brain striatal tissue is homogenized; from tissue; host or cells: calf brain striatum, membrane homogenate
Procedure: (§1) Furthermore the compound of formula I binds to dopamine receptors as characterised by the displacement of ^3 H-ligands from their respective binding sites in the homogenates of brain tissue.
The affinity to D-1 receptor sites [cf. W. Billard et al., Life Sci. 35, 1885-1893 (1984)] using ^3 H-(R)-(+)-8-chloro-7-hydroxy-3-methyl-5-phenyl-2,3,4,5-tetrahydro-1H-3-benzazepine (^3 H-SCH 23390) as ligand is determined as follows:
(§2) Fresh calf brain striatal tissue is homogenized in a 20 fold volume of Tris-HCl buffer (50 mM, pH 7.4 at 25° C.) using a Polytron tissue homogenizer. The homogenate is centrifuged for 10 minutes at 50,000 g (4° C.) and the supernatant discarded. The pellets are resuspended in the same buffer as before. The suspension is incubated for 20 minutes at 37° C. and then recentrifuged as before. The resulting pellets are stored frozen at -20° until their use in the binding assay. For the binding assay the pellets are resuspended in Tris-HCl buffer (50 mM, pH 7.4 at 37° C., containing 120 mM NaCl) in such a way that the final volume of 2 ml contains membranes corresponding to approximately 5 mg original tissue weight. ^3 H-SCH 23390 is added to give a final concentration of 0.1 nM. The assays for the determination of nonspecific binding additionally contain 1 μM unlabelled SCH 23390. […] The filters are monitored for radioactivity through liquid scintillation counting. […]

serum prolactin levels [1] = test system: serum prolactin levels; parameters: species or system rat (male Sprague-Dawley); settings: rat, in vivo
Procedure: The test is performed as follows:
Male rats (120-140 g, Sprague-Dawley, Suddeutsche Tierfarm, Tuttlingen, West Germany) are maintained on a 12:12 light dark cycle (lights on 06.00, off 18.00 hrs). On the evening before the experiment, animals are marked for identification purposes and caged in groups of 4 into makrolon (type 3) cages. The next morning, the rats in each group receive 10 mg/kg p.o. of the test drug or placebo (normal saline solution+2 drops HCl) 2, 4, 8, 16 or 24 hours before they are killed by decapitation. Blood samples are collected in plastic tubes, centrifuged to obtain the serum, which is then stored at -20° C. until assayed for prolactin. Prolactin in the serum is measured by radioimmunoassay according to that of A. Hausler et al., J. Ultrastruct. Res. 64, 74 (1978).

D-2 receptor sites = target: T2, D-2 receptor sites (Bos taurus, UniProt P20288); test: D-2 receptor binding, 3H-spiperone binding assay in calf striatal membranes
T2 construct: Calf striatal membranes are prepared as described above; from tissue; host or cells: calf brain striatum, membrane homogenate
Procedure: as §1
as §2, with “23390. The test compound is added to give 5 to 9 different concentrations.” for “23390.”
The high affinity of the compound for D-2 receptor sites may be determined in the ^3 H-spiperone binding assay [cf. […]

[2] = Cataleptogenic activity in rats; assay type: in vivo, rat (Sprague-Dawley); settings: rat, in vivo, po, read-out: ratio of catalepsy threshold dose to dose required to antagonize apomorphine induced gnawing
Procedure: (§3) (Drug Res.) 21, 252-255 (1971). In this test groups of 4-8 rats (120-170 g, Sprague-Dawley, females and males, Suddeutsche Tierfarm, Tuttlingen, West Germany) receive the test substance orally. At specified times after treatment the catalepsy of each rat is estimated by placing the forepaws on a 7 cm high block. The time for which the animal remains in this unnatural position is measured up to a maximum of 45 seconds. The threshold dose is the final dose, which still causes a catalepsy-median of >10 seconds. The compound of formula I has a threshold dose of 5 mg/kg p.o. determined during an 8 hour measurement period. This is a dose which is at least 25 times higher than that required to antagonize apomorphine induced gnawing.

catalepsy = test: Cataleptogenic activity in rats; assay type: in vivo, rat (Sprague-Dawley); settings: p.o.
Procedure: as §3

serum prolactin levels [3] = test: Serum prolactin levels in male rats after subcutaneous administration (radioimmunoassay); assay type: in vivo, rat (male OFA); settings: s.c., only at high doses
Procedure: E. Fluckiger et al., Experientia 34, 1330-1331 (1978)]:
Male OFA-rats of about 250 g body weight are brought to the experimental room 24 hours before the actual experiment. They are kept in appropriate cages by tens. After the experimental treatment they are kept singly. Food and water are freely available. Various doses of the compound or the vehicle are administered s.c. to groups of 5 animals. In this standard experiment the animals are decapitated 4 hours after treatment. The sera of the individual animals are deep frozen until assayed. Prolactin is then measured in aliquots by radioimmunoassay. The serum prolactin levels are expressed in ng/ml in terms of the prolactin standard NIAMD-RPrl-RP1.

[4] = test system: apomorphine induced gnawing; test: Inhibition of apomorphine induced gnawing in the rat; assay type: in vivo, rat (Sprague-Dawley); settings: po, apomorphine hydrochloride 2.0 mg/kg i.v., read-out: threshold dose (100% inhibition of apomorphine induced gnawing)
Procedure: The compound of formula I inhibits apomorphine induced gnawing in the rat in a method based on that of P.A. Janssen et al., Arzneim.-Forsch. (Drug Res.) 10, 1003-1005 (1960):
Groups of 3-6 rats (males and females, 90-160 g, Sprague-Dawley, Suddeutsche Tierfarm, Tuttlingen, West Germany) are treated with the test-drug orally and after a pre-determined time further treated with 2.0 mg/kg i.v. apomorphine hydrochloride in aq. solution. They are then placed in individual cages lined with corrugated paper. At times 10, 20 and 30 minutes after the apomorphine each rat is observed for 1 minute. If gnawing occurred during an observation period, that observation is scored as positive. Thus, three scores are obtained from each rat. The supra-maximal dose of apomorphine invariably produces gnawing in all controls at all observation times. Out of the total number of observations per treatment group, the number of positives is noted. The dose of drug which causes a 100% inhibition of the apomorphine induced gnawing is taken as the threshold dose. After a pretreatment time of 3 hours the threshold dose for the compound of formula I is 0.2 mg/kg p.o., after a pretreatment time of 6 hours also 0.2 mg/kg p.o.

Tolerability in mice = settings: mouse, in vivo, po, well tolerated up to, read-out: well tolerated dose
Procedure: (§4) The compound of formula I is well tolerated in mice up to 100 mg/kg p.o. The non-toxic dose level in the dog after a 4 week treatment is 3 mg/kg/day p.o.

[5] = test system: rats with an unilateral 6-OHDA (6-hydroxydopamine) induced lesion of the substantia nigra; test: Rotational behaviour in rats with unilateral 6-OHDA induced lesion of the substantia nigra (Ungerstedt rat); assay type: in vivo
Excerpt: For instance, the compound of formula I induces in rats with an unilateral 6-OHDA (6-hydroxydopamine) induced lesion of the substantia nigra [i.e. Ungerstedt rat, c.f.

[6] = Non-toxic dose level in the dog after 4 week treatment; settings: in vivo, po, after a 4 week treatment
Procedure: as §4

T2 sequence (P20288 whole entry): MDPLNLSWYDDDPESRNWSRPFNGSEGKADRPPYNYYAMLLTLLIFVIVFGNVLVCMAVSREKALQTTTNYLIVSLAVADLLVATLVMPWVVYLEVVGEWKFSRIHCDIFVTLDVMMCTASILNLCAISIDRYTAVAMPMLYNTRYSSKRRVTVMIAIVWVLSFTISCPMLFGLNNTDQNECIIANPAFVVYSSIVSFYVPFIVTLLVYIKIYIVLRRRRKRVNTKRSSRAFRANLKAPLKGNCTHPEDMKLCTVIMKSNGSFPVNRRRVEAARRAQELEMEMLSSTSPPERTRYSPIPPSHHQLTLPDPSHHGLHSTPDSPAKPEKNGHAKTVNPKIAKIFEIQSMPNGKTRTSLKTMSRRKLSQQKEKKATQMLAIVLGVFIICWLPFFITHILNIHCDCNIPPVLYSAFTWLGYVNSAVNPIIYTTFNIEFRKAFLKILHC
T1 sequence (Q95136 whole entry): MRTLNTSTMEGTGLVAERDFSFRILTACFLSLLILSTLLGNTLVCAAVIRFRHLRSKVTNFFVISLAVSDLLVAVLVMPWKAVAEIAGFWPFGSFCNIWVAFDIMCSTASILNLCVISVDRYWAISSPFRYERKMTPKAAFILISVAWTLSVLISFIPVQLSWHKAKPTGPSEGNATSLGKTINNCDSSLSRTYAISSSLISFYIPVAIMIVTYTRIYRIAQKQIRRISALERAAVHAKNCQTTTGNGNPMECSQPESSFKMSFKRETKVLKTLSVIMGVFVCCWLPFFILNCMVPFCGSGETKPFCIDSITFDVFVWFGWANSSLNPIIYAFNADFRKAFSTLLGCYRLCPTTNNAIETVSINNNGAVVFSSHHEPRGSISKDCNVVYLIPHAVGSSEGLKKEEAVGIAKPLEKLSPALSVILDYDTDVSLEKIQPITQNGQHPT

SMILES | IC50 (D-1 receptor sites) [nM] | effect on prolactin levels, oral administration (overall) (serum prolactin levels [1]) | effect on serum prolactin levels (serum prolactin levels [1]; po, 10 mg/kg) | IC50 (D-2 receptor sites) [nM] | selectivity ratio [2] | cataleptogenic activity (in words) (catalepsy) | threshold dose (catalepsy-median of >10 seconds) (catalepsy; 8 hour measurement period) [mg/kg p.o.] | dose that influences serum prolactin levels (serum prolactin levels [3]) [mg/kg] | ED100 ([4]; pretreatment time 3 hours) [mg/kg] | ED100 ([4]; pretreatment time 6 hours) [mg/kg] | MTD (Tolerability in mice) [mg/kg] | rotations contralateral to the lesion ([5]; 0.5 mg/kg p.o., within 7 hours) [rotations] | rotational behaviour (in words) ([5]; rats, relatively low doses, p.o.) | NOAEL at 672 h [6] [mg/kg/day]
CCC(C)(CC)C(=O)N[C@H]1C[C@@H]2c3cccc4[nH]c(C)c(c34)C[C@H]2N(C)C1 [compound of formula I, N-[(5R,8S,10R)-2,6-dimethyl-ergoline-8-yl]-2-ethyl-2-methyl-butanamide] | ~50 | only weak effects on prolactin levels | declines (24 hours) towards normal | ~20 | ≥ 25 | only a weak cataleptogenic activity | 5 | ≥ 10 | 0.2 | 0.2 | ≥ 100 | 950 | long lasting rotational behaviour contralateral to the lesion | 3
O=C(CCCN1CCC(O)(c2ccc(Cl)cc2)CC1)c1ccc(F)cc1 [haloperidol, reference compound] | – | – | – | – | – | – | – | – | – | 0.2 | – | – | – | –
